Laboratory results as given in patent US11078168B2, “Substituted N-hydroxyamidinoheterocycles as modulators of indoleamine 2,3-dioxygenase” (PHENEX DISCOVERY VERWALTUNGS-GMBH, priority 2016, dated 2021).

What follows are molecules tested against T1, Indoleamine 2,3-dioxygenase (Homo sapiens, UniProt P14902) (assay: SKOV-3 cellular Indoleamine 2,3-dioxygenase assay). Conditions: SKOV-3 cells, 50 ng/ml Interferon gamma, 100 μM L-Tryptophan, 24 hours, N-Formylkynurenin fluorescence detection; read-out: cell based activity.
T1 construct: endogenous in cells; host or cells: SKOV-3 (ATCC HTB-77), stimulated with interferon gamma
Protocol: SKOV-3 cellular Indoleamine 2,3-dioxygenase assay
SKOV-3 cells were obtained from the American Type Culture Collection (ATCC® HTB-77™) and maintained in McCoy's medium (Pan Biotech) supplemented with 10% fetal bovine serum and 1% Penicilin/Streptomycin. Cells were kept at 37° C. in a humidified incubator with 5% CO2. For assay preparation, cells were seeded at a density of 2*10^5/ml into black clear bottom 96 well plates in 100 μl medium/well supplemented with 50 ng/ml Interferon gamma (eBioscience, Thermo Fisher Scientific). After cells fully adhered to the plate, dilution series of compounds were added in medium containing additional L-Tryptophan to a final L-Tryptophan concentration of 100 μM. The cells were incubated for 24 hours. Detection of produced N-Formylkynurenin was performed by addition of 3-Methylpiperidine to a final concentration of 200 mM. The plates were sealed and heated to 65° C. for 20 minutes in a water bath. After cooling the fluorescence of each well was recorded with a Victor™X4 (PerkinElmer) plate reader at an emission wavelength of 535 nm and excitation at 405 nm (Tomek et al.; Anal Bioanal Chem (2013) 405:2515-2524., Tomek et al.; Biochim Biophys Acta. 2015 September; 1850(9):1772-80).

T1 sequence (P14902 whole entry): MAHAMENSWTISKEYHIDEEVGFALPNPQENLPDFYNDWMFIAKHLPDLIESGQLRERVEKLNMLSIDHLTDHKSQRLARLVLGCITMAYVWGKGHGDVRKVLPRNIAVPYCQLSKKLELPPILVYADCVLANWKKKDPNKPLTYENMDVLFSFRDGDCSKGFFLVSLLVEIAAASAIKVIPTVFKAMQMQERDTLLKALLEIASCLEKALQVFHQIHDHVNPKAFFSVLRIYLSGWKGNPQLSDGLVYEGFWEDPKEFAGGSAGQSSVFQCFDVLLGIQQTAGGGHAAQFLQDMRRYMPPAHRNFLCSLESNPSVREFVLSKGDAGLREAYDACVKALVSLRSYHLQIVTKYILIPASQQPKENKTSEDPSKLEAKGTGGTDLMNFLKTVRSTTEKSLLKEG

IC50, > 1 µM:
NS(=O)(=O)CC(=O)NCCSc1nonc1C(=NO)Nc1cncc(C(F)(F)F)c1 [107/34], O=C(O)C1CN(CCSc2nonc2C(=NO)Nc2ccc(F)c(C(F)F)c2)C1 [108/1], NS(=O)(=O)NCC[S+]([O-])c1nonc1C(=NO)Nc1ccc(F)c(Cl)c1 (centres unmarked) [109/1], [O-][S+](CC(F)(F)F)c1nonc1C(=NO)Nc1ccc(F)c(Br)c1 (centres unmarked) [109/3], O=C(NCCSc1nonc1C(=NO)Nc1ccc(F)c(Cl)c1)c1ccnc2nn[nH]c12 [117/2], O=C(NCCSc1nonc1C(=NO)Nc1ccc(F)c(Cl)c1)c1ccc(C(=O)O)nc1 [117/5], O=C(NCCSc1nonc1C(=NO)Nc1ccc(F)c(Cl)c1)c1ccc(NS(=O)(=O)C(F)(F)F)nc1 [117/11]

IC50, 0.1 to 1 µM:
O=C(NCCSc1nonc1C(=NO)Nc1ccc(F)c(C(F)F)c1)c1ccc(C(O)(C(F)(F)F)C(F)(F)F)cc1 [107/20], O=C(NCCSc1nonc1C(=NO)Nc1ccc(F)c(C(F)F)c1)c1ccc(-n2cnnc2)cc1 [107/26], O=C(O)CC1CN(CCSc2nonc2C(=NO)Nc2ccc(F)c(C(F)F)c2)C1 [108/2], [O-][S+](c1nonc1C(=NO)Nc1ccc(F)c(Br)c1)C1CC1 (centres unmarked) [109/2], O=C(NCCSc1nonc1C(=NO)Nc1ccc(F)c(Cl)c1)c1n[nH]c(=O)[nH]1 [117/1], O=C(NCCSc1nonc1C(=NO)Nc1ccc(F)c(Cl)c1)c1ccc(C(O)(C(F)(F)F)C(F)(F)F)cc1 [117/4], O=C(NCCSc1nonc1C(=NO)Nc1ccc(F)c(Cl)c1)c1nnc(C(F)(F)F)[nH]1 [117/6], Cn1nc(C(=O)NCCSc2nonc2C(=NO)Nc2ccc(F)c(C(F)F)c2)[nH]c1=O [117/17], Cn1nc(C(=O)NCCSc2nonc2C(=NO)Nc2cccc(C(F)(F)F)c2)[nH]c1=O [117/18], O=C(NCCSc1nonc1C(=NO)Nc1ccc(F)c(C(F)(F)F)c1)C1(O)CNC1 [123/1], NC(=O)N1CC(O)(C(=O)NCCSc2nonc2C(=NO)Nc2ccc(F)c(C(F)F)c2)C1 [128/4]

IC50, < 0.1 µM:
CC(C)(O)c1ccc(C(=O)NCCSc2nonc2C(=NO)Nc2ccc(F)c(C(F)(F)F)c2)cc1 [107/19], O=C(CC(O)(C(F)(F)F)C(F)(F)F)NCCSc1nonc1C(=NO)Nc1ccc(F)c(C(F)(F)F)c1 [107/21], O=C(NCCSc1nonc1C(=NO)Nc1ccc(F)c(C(F)(F)F)c1)C1=NOC(C(O)(C(F)(F)F)C(F)(F)F)C1 (centres unmarked) [107/22], O=C(NCCSc1nonc1C(=NO)Nc1ccc(F)c(C(F)F)c1)c1ccc(C(F)(F)F)cc1 [107/23], CS(=O)(=O)c1ccc(C(=O)NCCSc2nonc2C(=NO)Nc2ccc(F)c(C(F)F)c2)cc1 [107/24], N#Cc1ccc(C(=O)NCCSc2nonc2C(=NO)Nc2ccc(F)c(C(F)F)c2)cc1 [107/25], O=C(NCCSc1nonc1C(=NO)Nc1ccc(F)c(C(F)F)c1)c1ccc(-n2cnnn2)cc1 [107/27], N#CC1(c2ccc(C(=O)NCCSc3nonc3C(=NO)Nc3ccc(F)c(C(F)F)c3)cc2)CC1 [107/28], O=C(NCCSc1nonc1C(=NO)Nc1ccc(F)c(C(F)F)c1)c1ccc(C2(O)COC2)cc1 [107/29], O=C(NCCSc1nonc1C(=NO)Nc1ccc(F)c(C(F)F)c1)c1ccc(C(O)(C(F)(F)F)C(F)(F)F)nc1 [107/30], NS(=O)(=O)CC(=O)NCCSc1nonc1/C(=N/O)Nc1ccc(F)c(C(F)(F)F)c1 [107/31], CS(=O)(=O)CC(=O)NCCSc1nonc1/C(=N/O)Nc1ccc(F)c(C(F)F)c1 [107/32], NS(=O)(=O)CC(=O)NCCSc1nonc1C(=NO)Nc1cc(F)c(F)c(C(F)F)c1 [107/33], NS(=O)(=O)CCC(=O)NCCSc1nonc1C(=NO)Nc1ccc(F)c(C(F)(F)F)c1 [107/35], NS(=O)(=O)CCC(=O)NCCSc1nonc1C(=NO)Nc1ccc(F)c(C(F)F)c1 [107/36], NC(=O)CCC(=O)NCCSc1nonc1C(=NO)Nc1ccc(F)c(C(F)F)c1 [107/37], CS(=O)(=O)CCC(=O)NCCSc1nonc1C(=NO)Nc1ccc(F)c(C(F)F)c1 [107/38], CS(=O)(=O)CCC(=O)NCCSc1nonc1C(=NO)Nc1cccc(Cl)c1 [107/39], CS(=O)(=O)CCC(=O)NCCSc1nonc1C(=NO)Nc1cccc(Br)c1 [107/40], CS(=O)(=O)CCC(=O)NCCSc1nonc1/C(=N/O)Nc1ccc(F)c(Br)c1 [107/41], Cn1nc(C(=O)NCCSc2nonc2C(=NO)Nc2ccc(F)c(Cl)c2)[nH]c1=O [117/3], Cc1nnc(C(=O)NCCSc2nonc2C(=NO)Nc2ccc(F)c(Cl)c2)o1 [117/7], NS(=O)(=O)c1ccc(C(=O)NCCSc2nonc2C(=NO)Nc2ccc(F)c(Cl)c2)cc1 [117/8], NC(=O)c1ccc(C(=O)NCCSc2nonc2C(=NO)Nc2ccc(F)c(Cl)c2)cc1 [117/9], CS(=O)(=O)Nc1ccc(C(=O)NCCSc2nonc2C(=NO)Nc2ccc(F)c(C(F)F)c2)cc1 [117/10], NS(=O)(=O)CC(=O)NCCSc1nonc1/C(=N/O)Nc1ccc(F)c(C(F)F)c1 [117/12], NS(=O)(=O)CC(=O)NCCSc1nonc1/C(=N/O)Nc1cccc(C(F)(F)F)c1 [117/13], NS(=O)(=O)c1ccc(C(=O)NCCSc2nonc2C(=NO)Nc2ccc(F)c(C(F)F)c2)cc1 [117/14], NS(=O)(=O)c1ccc(C(=O)NCCSc2nonc2C(=NO)Nc2cccc(C(F)F)c2)cc1 [117/15], Cn1nc(C(=O)NCCSc2nonc2C(=NO)Nc2ccc(F)c(C(F)(F)F)c2)[nH]c1=O [117/16], NS(=O)(=O)CC(=O)NCCSc1nonc1/C(=N/O)Nc1cccc(C(F)F)c1 [117/19], CC(C)(C)OC(=O)NC1(CC(=O)NCCSc2nonc2C(=NO)Nc2ccc(F)c(C(F)F)c2)COC1 [117/20], NS(=O)(=O)C1(C(=O)NCCSc2nonc2C(=NO)Nc2ccc(F)c(C(F)F)c2)CC1 [117/21], NS(=O)(=O)CC(=O)NCCSc1nonc1C(=NO)Nc1cc(Br)c(F)cc1F [117/22], NS(=O)(=O)CC(=O)NCCSc1nonc1C(=NO)Nc1ccc(F)c(Br)c1F [117/23], NS(=O)(=O)CC(=O)NCCSc1nonc1C(=NO)Nc1cc(F)c(F)c(Br)c1 [117/24], NC(=O)CC(=O)NCCSc1nonc1C(=NO)Nc1cccc(C(F)(F)F)c1 [119/1], NC(=O)CC(=O)NCCSc1nonc1C(=NO)Nc1cccc(C(F)F)c1 [119/2], NC(=O)CS(=O)(=O)NCCSc1nonc1C(=NO)Nc1ccc(F)c(C(F)F)c1 [119/3], NC(=O)CS(=O)(=O)NCCSc1nonc1C(=NO)Nc1cccc(C(F)F)c1 [119/4], NC(=O)CCS(=O)(=O)NCCSc1nonc1C(=NO)Nc1ccc(F)c(C(F)F)c1 [119/5], NC(=O)CNS(=O)(=O)NCCSc1nonc1C(=NO)Nc1ccc(F)c(C(F)F)c1 [119/6], CS(=N)(=O)NCCSc1nonc1C(=NO)Nc1ccc(F)c(C(F)F)c1 (centres unmarked) [120/1], COC1(C(=O)NCCSc2nonc2C(=NO)Nc2ccc(F)c(C(F)F)c2)CNC1 [123/2], CC1(C(=O)NCCSc2nonc2/C(=N/O)Nc2ccc(F)c(C(F)F)c2)CCN1 (centres unmarked) [123/3], O=C(NCCSc1nonc1C(=NO)Nc1ccc(F)c(C(F)F)c1)C1CCN1 (centres unmarked) [123/4], CC1(C(=O)NCCSc2nonc2C(=NO)Nc2ccc(F)c(C(F)F)c2)CNC1 [123/5], O=C(NCCSc1nonc1C(=NO)Nc1ccc(F)c(C(F)F)c1)C1(F)CNC1 [123/6], NC(CC(=O)NCCSc1nonc1C(=NO)Nc1ccc(F)c(C(F)F)c1)C(F)(F)F (centres unmarked) [123/7], CS(=N)(=O)CC(=O)NCCSc1nonc1C(=NO)Nc1ccc(F)c(C(F)F)c1 (centres unmarked) [127/1], CS(=N)(=O)CC(=O)NCCSc1nonc1C(=NO)Nc1ccc(F)c(C(F)(F)F)c1 (centres unmarked) [127/2], CS(=N)(=O)CC(=O)NCCSc1nonc1C(=NO)Nc1cccc(Cl)c1 (centres unmarked) [127/3], CS(=N)(=O)CC(=O)NCCSc1nonc1C(=NO)Nc1cccc(Br)c1 (centres unmarked) [127/4], NS(=O)(=O)NCC(=O)NCCSc1nonc1C(=NO)Nc1ccc(F)c(C(F)(F)F)c1 [128/1], CS(=O)(=O)NCC(=O)NCCSc1nonc1C(=NO)Nc1ccc(F)c(C(F)F)c1 [128/2], CC(=O)N1CC(O)(C(=O)NCCSc2nonc2C(=NO)Nc2ccc(F)c(C(F)F)c2)C1 [128/3], CS(=O)(=O)N1CC(O)(C(=O)NCCSc2nonc2C(=NO)Nc2ccc(F)c(C(F)F)c2)C1 [128/5], NS(=O)(=O)N1CC(O)(C(=O)NCCSc2nonc2C(=NO)Nc2ccc(F)c(C(F)F)c2)C1 [128/6], NS(=O)(=O)N1CC(C(=O)NCCSc2nonc2C(=NO)Nc2ccc(F)c(C(F)F)c2)C1 [128/7]
